Experimental data as given in article PMC8147293, “Library of Selenocyanate and Diselenide Derivatives as In Vivo Antichagasic Compounds Targeting Trypanosoma cruzi Mitochondrion” (Pharmaceuticals, 2021).
Where two headings read alike, the source gives them in different places.

Tests used:
[1] = system: epimastigotes of T. cruzi Arequipa strain; test: Screening against extracellular epimastigotes (resazurin); format: cell-based, Trypanosoma cruzi; conditions: for IC50: Trypanosoma cruzi; for Selectivity Index Epimast.: IC50 Vero cells/IC50 epimastigotes
Procedure: Trypanocidal activity against epimastigotes of T. cruzi Arequipa strain (MHOM/Pe/2011/Arequipa, discrete typing unit V) was tested as previously described. In short, 5 × 10^5 epimastigotes·mL^−1 were treated by adding the tested compounds at a concentration range from 100 to 0.2 µM in 96-well microplates (200 µL·well^−1) for 48 h. Subsequently, resazurin sodium salt (Sigma-Aldrich) was added to be incubated for further 24 h. Finally, the absorbance was measured, and the trypanocidal activity was expressed as the IC50 (inhibitory concentration 50) using GraphPad Prism 6 software. Each compound concentration was tested in triplicate in three independent experiments.

Mammalian Vero cells = test: Cytotoxicity test on Vero cells (resazurin); format: cell-based; conditions: Chlorocebus sabaeus; for IC50: Table S1, cultured Vero cells, read-out: Toxicity IC50 Vero cell; for CC50: 72 h, Table 1, Vero cells, 48 h + 24 h resazurin, read-out: Toxicity IC50 Vero Cell
Procedure: Mammalian Vero cells (EACC No. 84113001), cultured as previously reported, were used to determine the cytotoxicity of the tested compounds [56]. In short, 1.25 × 10^4 Vero cells·mL^−1 were treated by adding the compounds at a concentration range from 400 to 1 µM in 96-well microplates (200 µL·well^−1) at 37 °C for 48 h. Subsequently, resazurin sodium salt (Sigma-Aldrich) was added to be incubated for further 24 h. Finally, cell viability was determined following the same procedure as described to assess the trypanocidal activity in the epimastigotes. Each compound concentration was tested in triplicate in three independent experiments.

[2] = system: Trypanosoma cruzi intracellular amastigotes; test: Screening against intracellular amastigotes in Vero cells (Giemsa counting); format: cell-based; conditions: for Selectivity Index Amast.: IC50 Vero cells/IC50 amastigotes; for IC50: Trypanosoma cruzi, Table 1, intracellular amastigotes in Vero cells, 72 h, read-out: Activity IC50 Amast.
Procedure: Trypanocidal activity against amastigotes was determined according to the literature reported previously. […]. […] Each compound concentration was tested in triplicate in four separate determinations.

[3] = system: Trypanosoma cruzi bloodstream trypomastigotes (BTs); test: Screening against bloodstream trypomastigotes (resazurin); format: cell-based; conditions: for Selectivity Index Trypomast.: IC50 Vero cells/IC50 trypomastigotes; for IC50: Trypanosoma cruzi, Table 1, bloodstream trypomastigotes, 24 h treatment + 4 h resazurin, read-out: Activity IC50 Trypomast.
Procedure: 2 × 10^6 Bloodstream trypomastigotes (BTs), obtained by cardiac puncture from infected BALB/c mice as previously described, were treated by adding the tested compounds at a concentration range from 50 to 0.1 µM in 96-well microplates (200 µL·well^−1) at 37 °C. After 24 h of treatment, resazurin sodium salt (Sigma-Aldrich) was added to be incubated for further 4 h. Finally, trypanocidal activity was determined following the same procedure as described to assess the trypanocidal activity in the epimastigotes. Each compound concentration was tested in triplicate in three independent experiments.

[4] = Table S1, cultured epimastigote form of T. cruzi, read-out: Activity IC50
[5] = Table 1, T. cruzi epimastigotes, 48 h treatment + 24 h resazurin, read-out: Activity IC50 Epimast.
[6] = 72 h, Table 1, T. cruzi epimastigotes, 48 h treatment + 24 h resazurin, read-out: Activity IC50 Epimast.

Row | SMILES | IC50 [1, 4] | IC50 (Mammalian Vero cells) | also measured
1 | N#C[Se]Cc1ccc(Br)cc1 [compound 1] | 39.1 ± 2.5 µM | 68.4 ± 3.7 µM | 
2 | Brc1ccc(C[Se][Se]Cc2ccc(Br)cc2)cc1 [compound 2] | 39.3 ± 4.1 µM | 30.7 ± 2.1 µM | 
3 | N#C[Se]Cc1ccccc1 [compound 3] |  | 53.3 ± 2.5 µM | 
4 | c1ccc(C[Se][Se]Cc2ccccc2)cc1 [compound 4] | 35.4 ± 3.6 µM | 26.8 ± 1.3 µM | 
5 | N#C[Se]Cc1ccc([N+](=O)[O-])cc1 [compound 5] | 21.8 ± 2.2 µM | 28.6 ± 2.4 µM | 
6 | O=[N+]([O-])c1ccc(C[Se][Se]Cc2ccc([N+](=O)[O-])cc2)cc1 [compound 6] | 13.6 ± 0.7 µM | 28.2 ± 1.1 µM | 
7 | N#C[Se]Cc1ccc(C(F)(F)F)cc1 [compound 7] | 34.1 ± 2.6 µM | 50.5 ± 3.8 µM | 
8 | CSc1ccc(C[Se]C#N)cc1 [compound 9] | 11.3 ± 0.7 µM | 67.3 ± 4.9 µM | 
9 | Cc1ccc(C[Se]C#N)cc1 [compound 11] | ≤ 10 µM |  | Selectivity Index Epimast. [1]: 20; IC50 [1, 5]: 3 ± 0.4 µM; CC50 (Mammalian Vero cells): 61.3 ± 3.7 µM; Selectivity Index Amast. [2]: 20; IC50 [2]: 3.1 ± 0.1 µM; Selectivity Index Trypomast. [3]: 14; IC50 [3]: 4.5 ± 0.6 µM
10 | Cc1ccc(C[Se][Se]Cc2ccc(C)cc2)cc1 [compound 12] | 19.4 ± 1.5 µM | 4.9 ± 0.7 µM | 
11 | N#C[Se]Cc1ccc(C#N)cc1 [compound 13] | 1.9 ± 0.7 µM | 12.8 ± 0.7 µM | 
12 | N#Cc1ccc(C[Se][Se]Cc2ccc(C#N)cc2)cc1 [compound 14] | 27.9 ± 2.9 µM | 8.9 ± 1.5 µM | 
13 | O=[N+]([O-])c1ccccc1C[Se][Se]Cc1ccccc1[N+](=O)[O-] [compound 16] | 18.4 ± 2.3 µM | 18.9 ± 2.4 µM | 
14 | N#C[Se]Cc1cccc([N+](=O)[O-])c1 [compound 17] | 37.4 ± 2.6 µM | 81.2 ± 4.8 µM | 
15 | O=[N+]([O-])c1cccc(C[Se][Se]Cc2cccc([N+](=O)[O-])c2)c1 [compound 18] | 1.5 ± 0.3 µM | 7.3 ± 1.1 µM | 
16 | N#C[Se]Cc1ccccc1C#N [compound 19] | 29.1 ± 3 µM | 18.5 ± 0.7 µM | 
17 | N#Cc1ccccc1C[Se][Se]Cc1ccccc1C#N [compound 20] | ≤ 10 µM |  | Selectivity Index Epimast. [1]: 13; IC50 [1, 6]: 1.3 ± 0.2 µM; CC50 (Mammalian Vero cells): 16.4 ± 0.5 µM; Selectivity Index Amast. [2]: 16; IC50 [2]: 1 ± 0.1 µM; Selectivity Index Trypomast. [3]: 18; IC50 ([3]; 28 h): 0.9 µM
18 | N#C[Se]Cc1cccc(C#N)c1 [compound 21] | ≤ 10 µM |  | Selectivity Index Epimast. [1]: 22; IC50 [1, 5]: 1 ± 0.2 µM; CC50 (Mammalian Vero cells): 21.7 ± 1.8 µM; Selectivity Index Amast. [2]: 27; IC50 [2]: 0.8 ± 0.1 µM; Selectivity Index Trypomast. [3]: 24; IC50 [3]: 0.9 ± 0.1 µM
19 | N#Cc1cccc(C[Se][Se]Cc2cccc(C#N)c2)c1 [compound 22] | 39.7 ± 2.6 µM | 29.8 ± 3 µM | 
20 | N#C[Se]Cc1cc2c(cc1Br)OCO2 [compound 23] | 14.1 ± 0.9 µM | 38.9 ± 2.1 µM | 
21 | Brc1cc2c(cc1C[Se][Se]Cc1cc3c(cc1Br)OCO3)OCO2 [compound 24] | 45.7 ± 2.6 µM | 61.8 ± 4.1 µM | 
22 | N#C[Se]Cc1cccc2cccnc12 [compound 25] | 10.3 ± 0.8 µM | 12.6 ± 0.3 µM | 

Row | SMILES | IC50 [1, 4] | IC50 (Mammalian Vero cells) | also measured
23 | c1cnc2c(C[Se][Se]Cc3cccc4cccnc34)cccc2c1 [compound 26] | 6.7 ± 0.4 µM | 19.6 ± 1 µM | 
24 | N#C[Se]Cc1ccc2ccccc2n1 [compound 27] | 99.5 ± 6.1 µM | 68.3 ± 6.7 µM | 
25 | N#C[Se]Cc1c2ccccc2cc2ccccc12 [compound 28] | 21.4 ± 0.9 µM | 169 ± 9.7 µM | 
26 | N#C[Se]Cc1nc2ccccc2nc1C[Se]C#N [compound 29] | 32.1 ± 1.1 µM | 67.4 ± 3.5 µM | 
27 | COc1cc2oc(=O)cc(C[Se]C#N)c2cc1OC [compound 30] | 30.9 ± 1.4 µM | 109 ± 10.5 µM | 
28 | N#C[Se]CC(=O)C12CC3CC(CC(C3)C1)C2 [compound 31] | 13.2 ± 0.8 µM | 85.5 ± 4.9 µM | 
29 | O=S(=O)(Nc1ccc([Se][Se]c2ccc(NS(=O)(=O)c3ccc(Br)cc3)cc2)cc1)c1ccc(Br)cc1 [compound 33] | 10.2 ± 0.8 µM | 49.7 ± 3.2 µM | 
30 | O=S(=O)(Nc1ccc([Se][Se]c2ccc(NS(=O)(=O)c3ccc(Cl)cc3)cc2)cc1)c1ccc(Cl)cc1 [compound 34] | 41.3 ± 2.1 µM | 29.8 ± 3.4 µM | 
31 | O=S(=O)(Nc1ccc([Se][Se]c2ccc(NS(=O)(=O)c3ccccc3Cl)cc2)cc1)c1ccccc1Cl [compound 35] | 28.4 ± 1.7 µM | 69 ± 5.3 µM | 
32 | O=S(=O)(Nc1ccc([Se][Se]c2ccc(NS(=O)(=O)c3ccc(F)cc3)cc2)cc1)c1ccc(F)cc1 [compound 36] | 11.1 ± 0.8 µM | 70.8 ± 4.8 µM | 
33 | O=S(=O)(Nc1ccc([Se][Se]c2ccc(NS(=O)(=O)c3ccccc3F)cc2)cc1)c1ccccc1F [compound 37] | 46.1 ± 3.1 µM | 39.6 ± 3.1 µM | 
34 | COc1ccc(S(=O)(=O)Nc2ccc([Se][Se]c3ccc(NS(=O)(=O)c4ccc(OC)cc4)cc3)cc2)cc1 [compound 38] | 27.8 ± 1.6 µM | 40.3 ± 2.5 µM | 
35 | O=[N+]([O-])c1ccc(S(=O)(=O)Nc2ccc([Se][Se]c3ccc(NS(=O)(=O)c4ccc([N+](=O)[O-])cc4)cc3)cc2)cc1 [compound 39] | 17.1 ± 1.3 µM | 11.7 ± 2.7 µM | 
36 | N#Cc1ccc(S(=O)(=O)Nc2ccc([Se][Se]c3ccc(NS(=O)(=O)c4ccc(C#N)cc4)cc3)cc2)cc1 [compound 40] | 3.8 ± 0.1 µM | 16 ± 1.7 µM | 
37 | O=S(=O)(Nc1ccc([Se][Se]c2ccc(NS(=O)(=O)c3ccccc3)cc2)cc1)c1ccccc1 [compound 41] | 6.8 ± 0.7 µM | 26.5 ± 1.4 µM | 
38 | O=S(=O)(Nc1ccc([Se][Se]c2ccc(NS(=O)(=O)c3ccc(C(F)(F)F)cc3)cc2)cc1)c1ccc(C(F)(F)F)cc1 [compound 42] | 5.9 ± 0.4 µM | 36 ± 2.3 µM | 
39 | Cc1ccc(S(=O)(=O)Nc2ccc([Se][Se]c3ccc(NS(=O)(=O)c4ccc(C)cc4)cc3)cc2)cc1 [compound 43] | ≤ 10 µM |  | Selectivity Index Epimast. [1]: 13; IC50 [1, 5]: 5.1 ± 0.6 µM; CC50 (Mammalian Vero cells): 66.9 ± 6.2 µM; Selectivity Index Amast. [2]: 16; IC50 [2]: 4.2 ± 0.7 µM; Selectivity Index Trypomast. [3]: 18; IC50 [3]: 3.7 ± 0.2 µM
40 | O=S(=O)(Nc1ccc([Se][Se]c2ccc(NS(=O)(=O)c3ccc4ccccc4c3)cc2)cc1)c1ccc2ccccc2c1 [compound 44] | 5.6 ± 1.1 µM | 30.8 ± 2.2 µM | 
41 | O=S(=O)(Nc1ccc([Se][Se]c2ccc(NS(=O)(=O)c3cccc4cccnc34)cc2)cc1)c1cccc2cccnc12 [compound 45] | 1.7 ± 0.3 µM | 14.3 ± 1.1 µM | 
42 | O=S(=O)(Nc1ccc([Se][Se]c2ccc(NS(=O)(=O)c3ccc(-c4ccccc4)cc3)cc2)cc1)c1ccc(-c2ccccc2)cc1 [compound 46] | ≤ 10 µM |  | Selectivity Index Epimast. [1]: 18; IC50 [1, 6]: 2.7 ± 0.8 µM; CC50 (Mammalian Vero cells): 48.6 ± 3.5 µM; Selectivity Index Amast. [2]: 21; IC50 [2]: 2.3 ± 0.1 µM; Selectivity Index Trypomast. [3]: 24; IC50 ([3]; 28 h): 2 ± 0.3 µM
43 | Cn1ccnc1S(=O)(=O)Nc1ccc([Se][Se]c2ccc(NS(=O)(=O)c3nccn3C)cc2)cc1 [compound 47] | ≤ 10 µM |  | Selectivity Index Epimast. [1]: 12; IC50 [1, 6]: 3.6 ± 0.3 µM; CC50 (Mammalian Vero cells): 44.7 ± 3 µM; Selectivity Index Amast. [2]: 15; IC50 [2]: 3 ± 0.4 µM; Selectivity Index Trypomast. [3]: 12; IC50 ([3]; 28 h): 3.8 ± 0.4 µM
44 | O=S(=O)(Nc1ccc([Se][Se]c2ccc(NS(=O)(=O)c3cccs3)cc2)cc1)c1cccs1 [compound 48] | 1.8 µM | 15.7 ± 1.1 µM | 
